Key:
[1] = frontal affinity chromatography (FAC), association constant to PA sugar chains having α1→6 L-fucose; format: binding; conditions: 25 degrees C.
Experimental: (§1) The following section will describe a method of calculating an association constant by frontal affinity chromatography (FAC). This method is based on the following principle. […] Then, the elution front end (front) is observed immediately. When there is an affinity with lectin, the elution of the sugar chain is delayed.
(§2) The preparation of a lectin column used in the apparatus is performed in the method as described below. 1. Purified lectin is dissolved in 0.1 to 0.2M of NaHCO3 buffer solution (pH 8.3 to 8.5). 2. The lectin is immobilized, via a lectin primary amino group, a carrier such as NHS activated sepharose. 3. Then, the lectin is blocked by Tris buffer solution including primary amine or ethanolamine for example. 4. Lectin-sepharose is suspended in 10 mM Tris buffer, including 0.8% of NaCl (pH 7.4, TBS). Then, lectin immobilized resin is filled in a miniature column (φ2 mm×10 mm, 31.4 μl). 5. The miniature column in which the lectin immobilized resin is filled is protected by a holder and the lectin column is connected to an FAC automatic analysis apparatus (FAC-1, SHIMADZU CORPORATION).
(§3) Then, the elution of the PA sugar chain from the column is detected by a fluorescence detector (excitation wavelength/fluorescence wavelength: 310 nm/380 nm).
(§4) Based on the detection data, by using the elution front end (Vo) of the sugar chain (PA rhamnose) not interacting with lectin as a reference, the delay (V−Vo) of the elution front end (V) of a sugar chain interacting with lectin is calculated as an interaction strength. Then, based on the following FAC criteria expressions, the association constant (Ka) between the sugar chain and lectin is calculated based on V−Vo and Bt. If the interaction strength (V−Vo value) and the association constant are higher, a higher affinity is caused between lectin and an L-fucose α1→6 sugar chain.
(§5) [In the formula, A means substance used for the elution, Ao means the initial concentration of the substance A, B means a immobilized ligand, V means the elution volume, Vo means the elution front end volume of the substance not interacting with the immobilized ligand B at all, Bt means an effective ligand amount, Kd means a dissociation constant (an inverse of the association constant)].
(§6) Pyridylaminated (PA) sugar chains shown in FIG. 1 and FIG. 2 were used to frontal affinity chromatography (FAC) analysis. PA sugars were purchased from TAKARA BIO INC., SEIKAGAKU BIOBUSINESS CORPORATION, and Masuda Chemical Industries co., LTD. PA sugar were also obtained by pyridylaminating, by GlycoTAG®(TAKARA BIO INC.), an unlabeled sugar chain or a sugar chain obtained by subjecting a sugar chain to enzyme digestion for example.
(§7) Lectin was dissolved in 0.2 M NaHCO3 buffer solution (pH 8.3) including 0.5 M NaCl and coupled to the NHS-activated sepharose (GE Healthcare Bioscience) by following the manufacturer's instructions. Then, lectin immobilized sepharose was suspended in 10 mM Tris buffer (pH 7.4, TBS) including […] and the resultant matter was filled in a miniature column (φ2 mm×10 mm, 31.4 μl).
(§8) Frontal affinity chromatography was performed using FAC automatic analysis apparatus (FAC-1, SHIMADZU CORPORATION). In particular, the above-prepared lectin column was inserted to a stainless steel holder and the holder was connected to FAC-1 apparatus. The flow rate and the column temperature were maintained at 0.125 ml/min and 25 degrees C., respectively. After the miniature column was equilibrated by the TBS, an excessive volume (0.5 ml to 4 ml) of a PA sugar chain (3.75 nM or 7.5 nM) was continuously inputted to the column using an automatic sampling apparatus.
(§9) The fluorescent strength of the eluate of the PA sugar (excitation wavelength of 310 nm and fluorescence wavelength of 380 nm) was monitored to measure the interaction strength [a difference of the front end eluate to the standard oligosaccharide (PA rhamnose): V−V0]. […]

[2] = frontal affinity chromatography (FAC), association constant to PA sugar chains having other L-fucose; format: binding; conditions: for binding to non-L-fucose α1→6 sugar chain: FAC; for association constant Ka: 25 degrees C.
Experimental: as §1, §2, §3, §4, §5, §6, §7, §8, §9

[3] = Sugar chain No. 728 (as listed in Table 5/12)

| Molecule | association constant Ka ([1]; Sugar chain No. 015) [M⁻¹] | association constant Ka ([1]; Sugar chain No. 201) [M⁻¹] | association constant Ka ([1]; Sugar chain No. 202) [M⁻¹] | association constant Ka ([1]; Sugar chain No. 203) [M⁻¹] | association constant Ka ([1]; Sugar chain No. 401) [M⁻¹] | association constant Ka ([1]; Sugar chain No. 402) [M⁻¹] | association constant Ka ([1]; Sugar chain No. 403) [M⁻¹] | association constant Ka ([1]; Sugar chain No. 404) [M⁻¹] | association constant Ka ([1]; Sugar chain No. 405) [M⁻¹] | association constant Ka ([1]; Sugar chain No. 406) [M⁻¹] | association constant Ka ([1]; Sugar chain No. 407) [M⁻¹] | association constant Ka ([1]; Sugar chain No. 410) [M⁻¹] | association constant Ka ([1]; Sugar chain No. 413) [M⁻¹] | association constant Ka ([1]; Sugar chain No. 418) [M⁻¹] | association constant Ka ([1]; Sugar chain No. 601) [M⁻¹] | association constant Ka ([1]; Sugar chain No. 602) [M⁻¹] | association constant Ka ([2]; Sugar chain No. 419) [M⁻¹] | association constant Ka ([2]; Sugar chain No. 420) [M⁻¹] | association constant Ka ([2]; Sugar chain No. 718) [M⁻¹] | association constant Ka ([2]; Sugar chain No. 719) [M⁻¹] | also measured |
| --- | --- | --- | --- | --- | --- | --- | --- | --- | --- | --- | --- | --- | --- | --- | --- | --- | --- | --- | --- | --- | --- |
| Pholiota terrestris lectin [PTL, novel L-fucose α1→6 specific lectin purified from the mushroom Pholiota terrestris] | 500000 | 460000 | 400000 | 330000 | 350000 | 200000 | 340000 | 390000 | 320000 | 220000 | 280000 | 220000 | 280000 | 220000 | 240000 | 120000 | <1000 | <1000 | <1000 | <1000 | association constant Ka to L-fucose α1→6 sugar chains ([1]; FAC): ≥ 100000 M⁻¹; binding to non-L-fucose α1→6 sugar chain [2]: not bound; association constant Ka ([2]; Sugar chain No. 720): <1000 M⁻¹; association constant Ka ([2]; Sugar chain No. 721): <1000 M⁻¹; association constant Ka ([2]; Sugar chain No. 722): <1000 M⁻¹; association constant Ka ([2]; Sugar chain No. 723): <1000 M⁻¹; association constant Ka ([2]; Sugar chain No. 726): <1000 M⁻¹; association constant Ka ([2]; Sugar chain No. 727): <1000 M⁻¹; association constant Ka [2, 3]: <1000 M⁻¹; association constant Ka ([2]; Sugar chain No. 729): <1000 M⁻¹; association constant Ka ([2]; Sugar chain No. 730): <1000 M⁻¹; association constant Ka ([2]; Sugar chain No. 731): <1000 M⁻¹; association constant Ka ([2]; Sugar chain No. 739): <1000 M⁻¹; association constant Ka ([2]; Sugar chain No. 909): <1000 M⁻¹; association constant Ka ([2]; Sugar chain No. 910): <1000 M⁻¹; association constant Ka ([2]; Sugar chain No. 931): <1000 M⁻¹; association constant Ka ([2]; Sugar chain No. 932): <1000 M⁻¹; association constant Ka ([2]; Sugar chain No. 933): <1000 M⁻¹ |
| Stropharia rugosoannulata lectin [SRL, novel L-fucose α1→6 specific lectin purified from the mushroom Stropharia rugosoannulata] | 49000 | 64000 | 61000 | 52000 | 57000 | 44000 | 56000 | 58000 | 54000 | 38000 | 10000 | 39000 | 10000 | 4300 | 10000 | 32000 | <1000 | <1000 | <1000 | <1000 | binding to non-L-fucose α1→6 sugar chain [2]: not bound; association constant Ka ([2]; Sugar chain No. 720): <1000 M⁻¹; association constant Ka ([2]; Sugar chain No. 721): <1000 M⁻¹; association constant Ka ([2]; Sugar chain No. 722): <1000 M⁻¹; association constant Ka ([2]; Sugar chain No. 723): <1000 M⁻¹; association constant Ka ([2]; Sugar chain No. 726): <1000 M⁻¹; association constant Ka ([2]; Sugar chain No. 727): <1000 M⁻¹; association constant Ka [2, 3]: <1000 M⁻¹; association constant Ka ([2]; Sugar chain No. 729): <1000 M⁻¹; association constant Ka ([2]; Sugar chain No. 730): <1000 M⁻¹; association constant Ka ([2]; Sugar chain No. 731): <1000 M⁻¹; association constant Ka ([2]; Sugar chain No. 739): <1000 M⁻¹; association constant Ka ([2]; Sugar chain No. 909): <1000 M⁻¹; association constant Ka ([2]; Sugar chain No. 910): <1000 M⁻¹; association constant Ka ([2]; Sugar chain No. 931): <1000 M⁻¹; association constant Ka ([2]; Sugar chain No. 932): <1000 M⁻¹; association constant Ka ([2]; Sugar chain No. 933): <1000 M⁻¹ |
| Aleuria aurantia lectin (protein) PTEFLYTSKIAAISWAATGGRQQRVYFQDLNGKIREAQRGGDNPWTGGSSQNVIGEAKLFSPLAAVTWKSAQGIQIRVYCVNKDNILSEFVYDGSKWITGQLGSVGVKVGSNSKLAALQWGGSESAPPNIRVYYQKSNGSGSSIHEYVWSGKWTAGASFGSTVPGTGIGATAIGPGRLRIYYQATDNKIREHCWDSNSWYVGGFSASASAGVSIAAISWGSTPNIRVYWQKGREELYEAAYGGSWNTPGQIKDASRPTPSLPDTFIAANSSGNIDISVFFQASGVSLQQWQWISGKGWSIGAVVPTGTPAGW | 91000 | 51000 | 54000 | 66000 | 55000 | 11000 | 52000 | 65000 | 56000 | 47000 | 45000 | 38000 | 32000 | <1000 | 61000 | 52000 | <1000 | <1000 | 65000 | <1000 | association constant Ka ([2]; Sugar chain No. 720): <1000 M⁻¹; association constant Ka ([2]; Sugar chain No. 721): <1000 M⁻¹; association constant Ka ([2]; Sugar chain No. 722): <1000 M⁻¹; association constant Ka ([2]; Sugar chain No. 723): 35000 M⁻¹; association constant Ka ([2]; Sugar chain No. 726): <1000 M⁻¹; association constant Ka ([2]; Sugar chain No. 727): 130000 M⁻¹; association constant Ka [2, 3]: <1000 M⁻¹; association constant Ka ([2]; Sugar chain No. 729): <1000 M⁻¹; association constant Ka ([2]; Sugar chain No. 730): <1000 M⁻¹; association constant Ka ([2]; Sugar chain No. 731): <1000 M⁻¹; association constant Ka ([2]; Sugar chain No. 739): <1000 M⁻¹; association constant Ka ([2]; Sugar chain No. 909): 310000 M⁻¹; association constant Ka ([2]; Sugar chain No. 910): 90000 M⁻¹; association constant Ka ([2]; Sugar chain No. 931): <1000 M⁻¹; association constant Ka ([2]; Sugar chain No. 932): <1000 M⁻¹; association constant Ka ([2]; Sugar chain No. 933): 210000 M⁻¹ |

Source: patent US8461305B2, “L-fucose α1→6 specific lectin” (J-Oil Mills, Inc., priority 2008, dated 2013)
